The source of these data is patent US20230017045A1, “PYRIDINE AND PYRIMIDINE CARBOXYLATE HERBICIDES AND METHODS OF USE THEREOF” (Dow AgroSciences LLC, priority 2017, published 2023).

In the assay the test system is test plant species. As to the kind of experiment: Post-emergent herbicidal activity test (greenhouse, foliar spray, visual growth reduction). As to conditions: post-emergence, 336 h, 140 g ai/ha, 14 days after application. In kind it is in vivo. The method, then:
Post-emergent Test: Seeds or nutlets of the desired test plant species were planted in Sun Gro Metro-Mix® 360 planting mixture, which typically has a pH of 6.0 to 6.8 and an organic matter content of about 30 percent, in plastic pots with a surface area of 64 square centimeters. In some aspects, to ensure good germination and healthy plants, a fungicide treatment and/or other chemical or physical treatment was applied. The plants were grown for 7-21 d in a greenhouse with an approximate 15 h photoperiod which was maintained at 23-29° C. during the day and 22-28° C. during the night. Nutrients and water were added on a regular basis and supplemental lighting was provided with overhead metal halide 1000-Watt lamps as necessary. Plants were used for testing when they reached the first or second true leaf stage. A weighed amount, determined by the highest rate to be tested, of each test compound was placed in a 25 mL glass vial and was dissolved in 4 mL of a 97:3 v/v mixture of acetone and DMSO to obtain concentrated stock solutions. […] The concentrated stock solutions obtained were diluted with 20 mL of an aqueous mixture containing acetone, water, isopropyl alcohol, DMSO, […] crop oil concentrate, and X-77 surfactant in a 48.5:39:10:1.5:1.0:0.02 v/v ratio to obtain spray solutions containing the application rate. Compound requirements are based upon a 12 mL application volume at a rate of 187 liters per hectare (L/ha). Formulated compounds were applied to the plant material with an overhead Mandel track sprayer equipped with […] nozzles calibrated to deliver 187 L/ha over an application area of 0.64 square meters at a spray height of 18 inches (43 cm) above the average plant canopy height. Control plants were sprayed in the same manner with the solvent blank. The treated plants and control plants were placed in a greenhouse as described above and watered by subirrigation to prevent wash-off of the test compounds. After 14 d, the condition of the test plants as compared with that of the nontreated and control plants was determined visually and scored on a scale of 0 to 100 percent where 0 corresponds to no injury and 100 corresponds to complete control. In the reporting of the results, Table A: Percent Growth Reduction Conversion Table was used.

Where [1] appears, read: ALOMY: blackgrass (Alopecurus myosuroides), read-out: Visual Growth Reduction (%) 14 Days After Application, ALOMY.
Where [2] appears, read: AMARE: redroot pigweed (Amaranthus retroflexus), read-out: Visual Growth Reduction (%) 14 Days After Application, AMARE.
Setting [3] is: AVEFA: wild oat (Avena fatua), read-out: Visual Growth Reduction (%) 14 Days After Application, AVEFA.
[4] abbreviates: CHEAL: lambsquarters (Chenopodium album), read-out: Visual Growth Reduction (%) 14 Days After Application, CHEAL.
Where [5] appears, read: CIRAR: canada thistle (Cirsium arvense), read-out: Visual Growth Reduction (%) 14 Days After Application, CIRAR.
The mark [6] stands for this setting: CYPES: yellow nutsedge (Cyperus esculentus), read-out: Visual Growth Reduction (%) 14 Days After Application, CYPES.
Setting [7] is: DIGSA: crabgrass (Digitaria sanguinalis), read-out: Visual Growth Reduction (%) 14 Days After Application, DIGSA.
Setting [8] is: ECHCG: barnyardgrass (Echinochloa crus-galli), read-out: Visual Growth Reduction (%) 14 Days After Application, ECHCG.
Setting [9] is: IPOHE: ivy-leaf morning glory (Ipomoea hederacea), read-out: Visual Growth Reduction (%) 14 Days After Application, IPOHE.
[10] abbreviates: ORYSA: rice (Oryza sativa), read-out: Visual Growth Reduction (%) 14 Days After Application, ORYSA.
[11] abbreviates: SORVU: grain sorghum (Sorghum vulgare), read-out: Visual Growth Reduction (%) 14 Days After Application, SORVU.
Where [12] appears, read: STEME: common chickweed (Stellaria media), read-out: Visual Growth Reduction (%) 14 Days After Application, STEME.
Where [13] appears, read: SETFA: giant foxtail (Setaria faberi), read-out: Visual Growth Reduction (%) 14 Days After Application, SETFA.
Where [14] appears, read: TRZAS: wheat, spring (Triticum aestivum), read-out: Visual Growth Reduction (%) 14 Days After Application, TRZAS.

Where two headings read alike, the source gives them in different places.

For the compound `COC(=O)c1nc(-c2ccc3cc[nH]c3c2F)ccc1Cl` [F69, Methyl 3-chloro-6-(7-fluoro-1H-indol-6-yl)picolinate], the pest or weed control at 140 g/ha under setting [1] lay within 0 to 29%; the pest or weed control at 140 g/ha under setting [2] fell in the range of 0 to 29%; the pest or weed control at 140 g/ha under setting [3] lay in the range of 0 to 29%; the pest or weed control at 140 g/ha under setting [4] was in the range of 0 to 29%; the pest or weed control at 140 g/ha under setting [5] is 0 to 29%; the pest or weed control at 140 g/ha under setting [6] is 0 to 29%. For the same compound, the pest or weed control at 140 g/ha by setting is: under setting [7], 0 to 29%; under setting [8], 0 to 29%; under setting [9], 0 to 29%; under setting [10], 0 to 29%; under setting [11], 0 to 29%; under setting [12], 0 to 29%.

Regarding `O=C(O)c1nc(-c2ccc(Cl)c(F)c2F)ccc1Cl` [F70, 3-Chloro-6-(4-chloro-2,3-difluorophenyl) picolinic acid], the pest or weed control at 140 g/ha reads like this: under setting [1], 0 to 29%; under setting [2], 95 to 100%; under setting [3], 0 to 29%; under setting [4], 95 to 100%; under setting [5], 75 to 84%; under setting [6], 75 to 84%. Moreover, the pest or weed control at 140 g/ha runs as follows: under setting [7], 60 to 74%; under setting [8], 45 to 59%; under setting [9], 85 to 94%; under setting [10], 0 to 29%; under setting [13], 30 to 44%; under setting [11], 85 to 94%. For the same compound, under setting [12], the pest or weed control at 140 g/ha lay in the range of 60 to 74%.

Turning to `COC(=O)c1nc(-c2ccc(Cl)c(F)c2F)ccc1Cl` [F71, Methyl 3-chloro-6-(4-chloro-2,3-difluorophenyl) picolinate], the pest or weed control at 140 g/ha runs as follows: under setting [1], 0 to 29%; under setting [2], 95 to 100%; under setting [3], 0 to 29%; under setting [4], 95 to 100%; under setting [5], 75 to 84%; under setting [6], 60 to 74%. Further, the pest or weed control at 140 g/ha by setting is: under setting [7], 75 to 84%; under setting [8], 0 to 29%; under setting [9], 95 to 100%; under setting [10], 30 to 44%; under setting [11], 75 to 84%; under setting [12], 45 to 59%.

For the compound `COC(=O)c1nc(-c2ccc(Cl)cc2)c(N)cc1Cl` [F72, methyl 5-amino-3-chloro-6-(4-chlorophenyl)picolinate], the pest or weed control at 140 g/ha is 0 to 29% under setting [1]; 0 to 29% under setting [2]; 0 to 29% under setting [3]; 0 to 29% under setting [4]; 0 to 29% under setting [5]; 0 to 29% under setting [6]. Further, the pest or weed control at 140 g/ha under setting [7] is 0 to 29%; the pest or weed control at 140 g/ha under setting [8] was in the range of 0 to 29%; the pest or weed control at 140 g/ha under setting [10] is 0 to 29%; the pest or weed control at 140 g/ha under setting [13] is 0 to 29%; the pest or weed control at 140 g/ha under setting [11] fell in the range of 0 to 29%; the pest or weed control at 140 g/ha under setting [12] lay in the range of 0 to 29%. Besides, the pest or weed control at 140 g/ha under setting [14] lay in the range of 0 to 29%.

As for `COc1c(Cl)ccc(-c2nc(C(=O)O)c(Cl)c(Cl)c2F)c1F` [F73, 3,4-Dichloro-6-(4-chloro-2-fluoro-3-methoxyphenyl)-5-fluoropicolinic acid], the pest or weed control at 140 g/ha is, setting by setting: under setting [1], 0 to 29%; under setting [2], 0 to 29%; under setting [3], 0 to 29%; under setting [4], 95 to 100%; under setting [5], 0 to 29%; under setting [6], 0 to 29%. The pest or weed control at 140 g/ha is, setting by setting: under setting [7], 0 to 29%; under setting [8], 0 to 29%; under setting [10], 0 to 29%; under setting [13], 0 to 29%; under setting [11], 0 to 29%; under setting [12], 0 to 29%. Under setting [14], the pest or weed control at 140 g/ha was in the range of 0 to 29%.

As for `COC(=O)c1nc(-c2ccc(Cl)c(OC)c2F)c(F)c(Cl)c1Cl` [F74, Methyl 3,4-dichloro-6-(4-chloro-2-fluoro-3-methoxyphenyl)-5-fluoropicolinate], the pest or weed control at 140 g/ha lay in the range of 0 to 29% under setting [1]; 0 to 29% under setting [2]; 0 to 29% under setting [3]; 30 to 44% under setting [4]; 0 to 29% under setting [5]; 0 to 29% under setting [6]. Moreover, the pest or weed control at 140 g/ha was in the range of 0 to 29% under setting [7]; 0 to 29% under setting [8]; 0 to 29% under setting [9]; 0 to 29% under setting [10]; 0 to 29% under setting [13]; 0 to 29% under setting [11]. Besides, the pest or weed control at 140 g/ha by setting is: under setting [12], 0 to 29%; under setting [14], 0 to 29%.

Turning to `COc1c(Cl)ccc(-c2cc(Cl)c(Cl)c(C(=O)O)n2)c1F` [F75, 3,4-Dichloro-6-(4-chloro-2-fluoro-3-methoxyphenyl) picolinic acid], the pest or weed control at 140 g/ha lay within 0 to 29% under setting [1]; 85 to 94% under setting [2]; 0 to 29% under setting [3]; 95 to 100% under setting [4]; 30 to 44% under setting [5]; 0 to 29% under setting [6]. In addition, the pest or weed control at 140 g/ha lay in the range of 0 to 29% under setting [7]; 95 to 100% under setting [8]; 30 to 44% under setting [9]; 0 to 29% under setting [10]; 45 to 59% under setting [13]; 0 to 29% under setting [11]. Moreover, the pest or weed control at 140 g/ha reads like this: under setting [12], 30 to 44%; under setting [14], 0 to 29%.

Regarding `COC(=O)c1nc(-c2ccc(Cl)c(OC)c2F)cc(Cl)c1Cl` [F76, methyl 3,4-dichloro-6-(4-chloro-2-fluoro-3-methoxyphenyl)picolinate], the pest or weed control at 140 g/ha is, setting by setting: under setting [1], 0 to 29%; under setting [2], 30 to 44%; under setting [3], 0 to 29%; under setting [4], 45 to 59%; under setting [5], 0 to 29%; under setting [6], 30 to 44%. Besides, the pest or weed control at 140 g/ha under setting [7] lay in the range of 0 to 29%; the pest or weed control at 140 g/ha under setting [8] lay in the range of 0 to 29%; the pest or weed control at 140 g/ha under setting [9] was 30 to 44%; the pest or weed control at 140 g/ha under setting [10] is 0 to 29%; the pest or weed control at 140 g/ha under setting [13] lay in the range of 0 to 29%; the pest or weed control at 140 g/ha under setting [11] is 0 to 29%. Further, the pest or weed control at 140 g/ha by setting is: under setting [12], 0 to 29%; under setting [14], 0 to 29%.
